The results in this text go back to ChEMBL document CHEMBL3046032, “Synthesis and biological evaluation of novel AM80 derivatives as antileukemic agents” (Med Chem Res, 2013).

Common to all, as to assay type: functional, cell-based
One assay has as its system HL-60. Put plainly: Cytotoxicity against Homo sapiens (human) HL60 cells assessed as growth inhibition after 48 hr by MTT assay. The conditions noted are these: HL-60, 48 h. On the technique in general: Tetrazolium dyes change colour on reduction, which living cells bring about.
The next assay has as its system NB-4. Put plainly: Cytotoxicity against Homo sapiens (human) NB4 cells assessed as growth inhibition after 48 hr by MTT assay. The conditions noted are these: NB-4, 48 h.
The next assay concerns K562. The experiment in a line: Cytotoxicity against Homo sapiens (human) K562 cells assessed as growth inhibition after 48 hr by MTT assay. The following applies: K562, 48 h.

As a reminder, the IC50 is the concentration at which inhibition is half-maximal. Consider `CCCC(=O)OCCCOC(=O)c1ccc(C(=O)Nc2ccc3c(c2)C(C)(C)CCC3(C)C)cc1`, for which the IC50 in the assay on HL-60 is 2.99 µM; in the assay on NB-4, 5.75 µM; in the assay with K562, 4.57 µM.
In the same order, the values of `CCCC(=O)OCCOC(=O)c1ccc(C(=O)Nc2ccc3c(c2)C(C)(C)CCC3(C)C)cc1` are 6.29 µM, 11 µM and 18.6 µM.
For `Cc1cc2c(cc1C(=O)c1ccc(C(=O)OCCCCOC(=O)c3ccc(C(=O)Nc4ccc5c(c4)C(C)(C)CCC5(C)C)cc3)cc1)C(C)(C)CCC2(C)C` the same measures were 24.7 µM, 147 µM and 84 µM.
With `C=C(c1ccc(C(=O)OCCOC(=O)c2ccc(C(=O)Nc3ccc4c(c3)C(C)(C)CCC4(C)C)cc2)cc1)c1cc2c(cc1C)C(C)(C)CCC2(C)C`, the IC50 was 30.7 µM in the assay with HL-60, greater than 1000 µM with NB-4 and 504 µM in the assay with K562.
`CCCC(CCC)C(=O)OCCOC(=O)c1ccc(C(=O)Nc2ccc3c(c2)C(C)(C)CCC3(C)C)cc1`: the IC50 in the assay on HL-60 was 256 µM; with NB-4 it was greater than 1000 µM; in the assay on K562, 664 µM.
Consider `CCCC(CCC)C(=O)OCCCCOC(=O)c1ccc(C(=O)Nc2ccc3c(c2)C(C)(C)CCC3(C)C)cc1`, for which the IC50 is 914 µM in the assay with HL-60, greater than 1000 µM in the assay on NB-4 and greater than 1000 µM in the assay with K562.
With `CCCC(=O)NCCNC(=O)c1ccc(C(=O)Nc2ccc3c(c2)C(C)(C)CCC3(C)C)cc1`, the IC50 in the assay on HL-60 is 5.61 µM; with NB-4 it was 3.26 µM; in the assay with K562, 7.98 µM.
In the same order, the values of `C=C(c1ccc(C(=O)NCCOC(=O)c2ccc(C(=O)Nc3ccc4c(c3)C(C)(C)CCC4(C)C)cc2)cc1)c1cc2c(cc1C)C(C)(C)CCC2(C)C` are 504 µM, greater than 1000 µM and greater than 1000 µM.
As to `C=C(c1ccc(C(=O)NCCCCCCNC(=O)c2ccc(C(=O)Nc3ccc4c(c3)C(C)(C)CCC4(C)C)cc2)cc1)c1cc2c(cc1C)C(C)(C)CCC2(C)C`, the IC50 was 70.7 µM in the assay on HL-60, greater than 1000 µM in the assay with NB-4 and 294 µM with K562.
For `Cc1cc2c(cc1C(=O)c1ccc(C(=O)NCCNC(=O)c3ccc(C(=O)Nc4ccc5c(c4)C(C)(C)CCC5(C)C)cc3)cc1)C(C)(C)CCC2(C)C` the same measures were 14.3 µM, 104 µM and 39.6 µM.
For `CCCC(CCC)C(=O)OCCNC(=O)c1ccc(C(=O)Nc2ccc3c(c2)C(C)(C)CCC3(C)C)cc1` the same measures were greater than 1000 µM, greater than 1000 µM and greater than 1000 µM.
In the same order, the values of `Cc1cc2c(cc1C(=O)c1ccc(C(=O)NCCOC(=O)c3ccc(C(=O)Nc4ccc5c(c4)C(C)(C)CCC5(C)C)cc3)cc1)C(C)(C)CCC2(C)C` are 37.5 µM, 72.4 µM and 247 µM.
Take `CCCC(=O)OCCNC(=O)c1ccc(C(=O)Nc2ccc3c(c2)C(C)(C)CCC3(C)C)cc1`: the IC50 was 36.8 µM with HL-60, 213 µM with NB-4 and 25.4 µM in the assay with K562.
In the same order, the values of `Cc1cc2c(cc1C(=O)c1ccc(C(=O)OCCOC(=O)c3ccc(C(=O)Nc4ccc5c(c4)C(C)(C)CCC5(C)C)cc3)cc1)C(C)(C)CCC2(C)C` are 6.83 µM, 67 µM and 39.9 µM.
For `CCCC(=O)OCCCCOC(=O)c1ccc(C(=O)Nc2ccc3c(c2)C(C)(C)CCC3(C)C)cc1` the same measures were 7.32 µM, 23.2 µM and 92.6 µM.
Regarding `CCCC(CCC)C(=O)NCCNC(=O)c1ccc(C(=O)Nc2ccc3c(c2)C(C)(C)CCC3(C)C)cc1`, the figures for the IC50 in the assay on HL-60, in the assay on NB-4 and with K562 were 12.4 µM, 5.69 µM and 83.7 µM, respectively.
Regarding `C=C(c1ccc(C(=O)OCCCCOC(=O)c2ccc(C(=O)Nc3ccc4c(c3)C(C)(C)CCC4(C)C)cc2)cc1)c1cc2c(cc1C)C(C)(C)CCC2(C)C`, the IC50 with HL-60 was 25.1 µM; with NB-4, 650 µM; in the assay with K562, greater than 1000 µM.
For `Cc1cc2c(cc1C(=O)c1ccc(C(=O)OCCCOC(=O)c3ccc(C(=O)Nc4ccc5c(c4)C(C)(C)CCC5(C)C)cc3)cc1)C(C)(C)CCC2(C)C` the same measures were 14.9 µM, 112 µM and 49.1 µM.
For the compound `CCCC(CCC)C(=O)OCCCOC(=O)c1ccc(C(=O)Nc2ccc3c(c2)C(C)(C)CCC3(C)C)cc1`, the IC50 in the assay on HL-60 is 835 µM; in the assay on NB-4, greater than 1000 µM; in the assay on K562, greater than 1000 µM.
Turning to `C=C(c1ccc(C(=O)NCCNC(=O)c2ccc(C(=O)Nc3ccc4c(c3)C(C)(C)CCC4(C)C)cc2)cc1)c1cc2c(cc1C)C(C)(C)CCC2(C)C`, the IC50 was determined as 14.8 µM in the assay on HL-60, 569 µM in the assay on NB-4 and 73.5 µM in the assay with K562.
As to `Cc1cc2c(cc1C(=O)c1ccc(C(=O)NCCCCCCNC(=O)c3ccc(C(=O)Nc4ccc5c(c4)C(C)(C)CCC5(C)C)cc3)cc1)C(C)(C)CCC2(C)C`, the IC50 was 95.4 µM with HL-60, greater than 1000 µM in the assay on NB-4 and 95.4 µM in the assay with K562.
As for `C=C(c1ccc(C(=O)OCCCOC(=O)c2ccc(C(=O)Nc3ccc4c(c3)C(C)(C)CCC4(C)C)cc2)cc1)c1cc2c(cc1C)C(C)(C)CCC2(C)C`, the IC50 in the assay with HL-60 is 19.2 µM; in the assay with NB-4, 212 µM; in the assay on K562 it was greater than 1000 µM.
